Assay results: patent US12306176B2, “Microfluidic bi-directional migration assay” (Ohio State Innovation Foundation, priority 2017, dated 2025)

Test system: MDA-MB-231 cells
Experiment: Microfluidic bi-directional migration (MBDM) assay, mean migration speed and persistence
Format: cell-based, human
Source text: To quantify the effects of iEF treatment on directed cell migration speed and persistence, a custom microfluidic bi-directional microtrack (MBDM) assay was developed that enables real-time monitoring with time-lapse microscopy of cell motility.
In this study, the EF sensing mechanisms of breast cancer cells in response to asymmetric iEFs (<100 μV/cm) was investigated. Using a MBDM assay, changes in the speed and persistence of spontaneously migrating MDA-MB-231 breast cancer cells were observed. This cell type was selected for these studies because it is a putative metastatic breast cancer cell line that is also responsive to gradients of a chemoattractant such as EGF (Wang S J, et al. (2004) Exp Cell Res 300 (1):180-189; Wu A, et al. (2013) Proc Natl Acad Sci U S A 110(40):16103-16108). […] This configuration enables direct comparison of cell movement in response to iEFs applied primarily with the direction of cell migration (“parallel”) or against the direction of cell migration (“anti-parallel”) within the same microfluidic device. Here, the field direction is defined as the direction that has the higher peak magnitude, as well as higher time-average field strength.
To calculate persistence, the following protocol was followed for each cell tracked in a microtrack of the MBDM assay. A cell starts at position Pt at time t. After a single time increment, dt, the cell moves to a new position, Pt+dt. The distance traveled during this time is the absolute difference in the two positions denoted as Li: Li=|Pt+dt−Pt|
The total distance traveled is then the sum of all distances traveled during N time increments denoted as Lt. Additionally, the total time of travel is the number of time increments multiplied by the size of the time increments denoted as Tt.
The displacement is simply the difference between the final and initial position: Ld=|PFinal−PInitial|
The MBDM assay was designed to have three ports separated by 700 μm long arrays of parallel microtracks (FIG. 1D). The dimension of each port was 50 mm×15 mm. Cells were seeded in the center port and the top and bottom ports were designated as cell collection port and/or chemokine source reservoir port depending on the experimental condition. Microchannels were designed to have a square cross-section of 20 μm×20 μm. The cross-section dimensions were on the same order as the size of single cells and mimic the dimensions of pre-existing microtracks available to cells in-vivo (Kraning-Rush C M, et al. (2013) lntegr Biol (Camb). 5 (3):606-616). Moreover, these migratory tracks are representative of physiologically relevant matrix metalloproteinase independent cancer-cell migration mode during metastasis (Friedl P & Alexander S (2011) Cell 147 (5):992-1009; Wolf K, et al. (2009) Semin Cell Dev Biol. 20 (8):931-941; Friedl P & Wolf K (2003) Nat Rev Cancer. 3 (5):362; Wolf K, et al. (2007) Nat Cell Biol. 9 (8):893; Wolf K, et al. (2003) J Cell Biol. 160 (2):267-277). The bi-directional design of this assay allows cells to migrate in either direction from the seeding port and provides a better understanding and quantification of the directional bias of external cues such as chemokine gradients and the directional effects of applied iEFs. The large ports for cell seeding ensure uniform seeding density, excellent cell viability, and repeatability.
Cells were washed in culture plates with 1×PBS solution, treated with 0.05% trypsin-EDTA solution (Sigma-Aldrich), and then counted using a hemocytometer. Cells (2×10^5) suspended in migration media were seeded in the middle port (seeding port) with an extremely small flow from the collection ports to the seeding port, which equilibrated in less than 15 minutes. The cells inside the devices were then incubated for 12 hours in migration media following which the media was aspirated and replaced with new media based on the experimental conditions. […]

## epidermal growth factor [EGF]
EGF gradient (25 ng/mL) alone, no iEF, no inhibitor
  mean migration speed: 0.43 μm/min
Stable EGF gradient alone
  average persistence: 0.84
  increase of persistence compared to untreated control: 6%
  mean migration speed compared to untreated controls: increased significantly
